For data set [1], the system named is Saccharomyces cerevisiae BY4741/YEplac195-PDR5. Nature of the data set: microbe, parasite or virus in culture. The class given is cell-based. As to conditions: 24 h; for MIC: Saccharomyces cerevisiae, read-out: MIC, Yeast, BY4741/ PDR5.
Data set [2] deals with Saccharomyces cerevisiae BY4741/YEplac195. As to the kind of experiment: microbe, parasite or virus in culture. The class given is cell-based. As to conditions: 24 h, 30 °C, average of at least three experiments; for MIC: Saccharomyces cerevisiae, read-out: MIC, Yeast, BY4741/ YEplac195.
Data set [3] relates to yeast cells. As to the kind of experiment: Intracellular ATP by luciferase bioluminescence, yeast. Conditions: 50-fold the MIC, overnight treatment. The class given is cell-based, Saccharomyces cerevisiae. Here is the method: The procedure described by Lehtinen et al. was followed, with the modifications indicated herein. In the case of bacteria, 1.5 OD600 units were incubated overnight in 1 mL of final volume with 5-fold MIC concentrations. Then, the cells were collected, washed 3 times in 20 mM phosphate buffer pH 7.4, and lysed in 200 μL of LS1 (50 mM of glucose, 25 mM of Tris-HCl pH 8.0, and 10 mM of EDTA pH 8.0) containing 5 mg/mL of lysozyme and the same volume of glass beads (425–600 μm), by stirring 10 times for 15 s each. Then, the solution was centrifuged at 14,800× g for 15 min, and the supernatant was used for a luciferase assay. For this purpose, in each well of a microtiter plate, 100 μL of luciferase assay buffer (0.015 M of MgSO4, 0.015 M of KH2PO4 pH 8, 0.004 M of EGTA pH 8, and 2 mM of DTT) was added together to a 50 μL of 0.3 mg/mL luciferin solution in 0.01% (w/v) Triton X-100 and 50 μL of the cell extract. Finally, 15 μL of a 67 μg/mL aqueous solution of luciferase was added. Light emission was immediately detected using a Luminoskan Ascent instrument (Thermo Scientific, Waltham, MA, USA) for 1 s per well. Glass beads, lysozyme, luciferin, and luciferase were purchased from Sigma-Aldrich.
[…] Then, cells were collected and washed as above and resuspended in 500 μL of LS2 (140 mM of NaCl, 1.5 mM of MgCl2, 10 mM of Tris-HCl pH 8.0, and 0.5% (v/v) NP40). Cells were lysed in the presence of 1 volume of glass beads as described above. The next steps were carried out as in the case of bacterial samples.
Experiments were carried out at least in triplicate in all cases, and control drugs and SDS (0.1% (w/v) of the final concentration) were also included.

In data set [4] the test system is E. coli. Nature of the data set: Lytic activity, time-kill (OD600), E. coli. As to conditions: 5 times the MIC. Format: cell-based, Escherichia coli. Here is the method:
To determine if the compounds showing microbicidal activity induce cell lysis, the procedure described by Fleeman et al. was followed, with the modifications indicated below. The E. coli and S. aureus strains were grown as in the experiments described earlier. The cells corresponding to 1.5 units of OD600 were collected and resuspended in 1% BP after washing in the same medium. They were incubated in a final volume of 1 mL with concentrations 5 times higher than the MIC of the analysed compounds, and OD600 was monitored over time. Other antimicrobial compounds were also used in this study as controls. The experiments were performed in triplicate.

Data set [5] deals with S. cerevisiae strains. Nature of the data set: Minimal fungicidal concentration, S. cerevisiae strains. Format: cell-based, Saccharomyces cerevisiae. As to conditions: fungistatic = growth on SC-ura plates after incubation at four times the MIC. Here is the method:
Once the MIC was known, the samples were prepared as described in the previous section with polyamine concentrations corresponding to the MIC and half, double, and four times its value. After overnight incubation with the microorganisms, 30 μL of a ten-fold dilution of each one was spread in LB (in the case of bacterial strains) or SC-ura (for yeast strains) plates. They were incubated for 20 h at 37 °C (bacteria) or 48 h at 30 °C (yeasts), and the level of growth was determined. […] Experiments were carried out at least three times.

On the set-up of data set [6]: method as in PMID 37335019. As to conditions: 298 K, 0.15 mol/dm NaCl; error in last figure in parentheses; cited from earlier work.

Regarding `c1cc2nc(c1)CNCCN(CCNCc1ccc3c(c1)OCO3)CCNC2` [Compound 5a, 2-(3,6,9-triaza-1(2,6)-pyridinacyclodecaphane-6-yl)-N-(benzo[d][1,3]dioxol-5-ylmethyl)ethan-1-amine], the MIC in data set [1] and in data set [2] was 60 µg/mL each time. Moreover, in data set [3], the “Intracellular ATP level relative to untreated cells” value is given as 50–70%. The “Lytic activity (OD600 over time)” value in data set [4] is on record as “do not have a lytic effect”. For the same compound, in data set [5], the “Minimal fungicidal concentration (MFC), S. cerevisiae Strains” value (from here on “Minimal fungicidal concentration (MFC)”) is “Fungistatic”.
Take `Oc1ccccc1CNCCN1CCNCc2cccc(n2)CNCC1` [Compound 6a]: in data set [6], the “Stepwise protonation constant (log K), H2L + H ⇄ H3L” value is reported as 7.92 (1); the “Stepwise protonation constant (log K), H3L + H ⇄ H4L” value is listed as 6.67 (2); the “Stepwise protonation constant (log K), L + H ⇄ HL” value is reported as 9.93 (1); the “Stepwise protonation constant (log K), LH + H ⇄ H2L” value is 9.11 (1). For the same compound, the MIC in data set [1] was 45 µg/mL. Further, the MIC in data set [2] amounted to 45 µg/mL. In data set [3], the “Intracellular ATP level relative to untreated cells” value is reported as 50–70%. Moreover, in data set [4], the “Lytic activity (OD600 over time)” value is on record as “do not have a lytic effect”. Further, the “Minimal fungicidal concentration (MFC)” value in data set [5] is “Fungistatic”.
As to `Oc1ccc(CNCCN2CCNCc3cccc(n3)CNCC2)cc1` [Compound 7a], in data set [6], the “Stepwise protonation constant (log K), H2L + H ⇄ H3L” value was 8.516 (8); the “Stepwise protonation constant (log K), H3L + H ⇄ H4L” value is recorded as 7.341 (9); the “Stepwise protonation constant (log K), L + H ⇄ HL” value is 10.153 (9); the “Stepwise protonation constant (log K), LH + H ⇄ H2L” value is reported as 9.473 (9). In addition, the MIC in data set [1] came out at 295 µg/mL. Besides, in data set [2], the MIC came to 295 µg/mL.
Regarding `c1cc2nc(c1)CNCCN(CCNCc1ccc3c(c1)CCO3)CCNC2` [Compound 8a, 2-(3,6,9-triaza-1(2,6)-pyridinacyclodecaphane-6-yl)-N-((2,3-dihydrobenzofuran-5-yl)methyl)ethan-1-amine], the MIC in data set [1] and in data set [2] was 400 µg/mL throughout.
As to “N^1-(benzo[d][1,3]dioxol-5-ylmethyl)-N^3-(2-((2-((3-((benzo[d][1,3]dioxol-5-ylmethyl)amino)propyl)amino)ethyl)(2-((3-(((2,3-dihydrobenzofuran-6-yl)methyl)amino)propyl)amino)ethyl)amino)ethyl)propane-1,3-diamine [Compound 4a]”, in data set [1] (30 °C, Pdr5-overexpressing strain), the “MIC, Yeast, BY4741/ PDR5” value is given as 150 µg/mL. Also, the “MIC, Yeast, BY4741/ YEplac195” value in data set [2] turned out to be 150 µg/mL. The “Minimal fungicidal concentration (MFC)” value in data set [5] is recorded as “Fungistatic”.
